The values below come from publication PMC12032945, “Estrogenic activity of E2-conjugated GLP-1 is mediated by intracellular endolysosomal acidification and estrone metabolism” (Molecular Metabolism, 2025).

For assay [1], the system named is G-protein coupled estrogen receptor 1 (GPER1). The assay can be described thus: cAMP production in GPER1+ HEK293T cells. The format is cell-based. For orientation: Changes in cAMP serve as a functional read-out for many G protein-coupled receptors.
Assay [2] concerns ERα and SP-1. The assay can be described thus: Proximity ligation assay (PLA) ERα / SP-1. The format is cell-based, human (hERα) in HEK293T cells. As to conditions: 1 μM; HEK293T overexpressing hGLP-1R and ERα.
The subject of assay [3] is GLP-1R+ HEK293T cells. In words: estrone-3-sulfate ELISA in cell lysate. As to conditions: 1 μM, 2 h. The format is cell-based. In general terms: ELISA stands for enzyme-linked immunosorbent assay.
Assay [4] deals with T1, ERα (Homo sapiens, UniProt P03372).
T1 sequence (P03372 1-595): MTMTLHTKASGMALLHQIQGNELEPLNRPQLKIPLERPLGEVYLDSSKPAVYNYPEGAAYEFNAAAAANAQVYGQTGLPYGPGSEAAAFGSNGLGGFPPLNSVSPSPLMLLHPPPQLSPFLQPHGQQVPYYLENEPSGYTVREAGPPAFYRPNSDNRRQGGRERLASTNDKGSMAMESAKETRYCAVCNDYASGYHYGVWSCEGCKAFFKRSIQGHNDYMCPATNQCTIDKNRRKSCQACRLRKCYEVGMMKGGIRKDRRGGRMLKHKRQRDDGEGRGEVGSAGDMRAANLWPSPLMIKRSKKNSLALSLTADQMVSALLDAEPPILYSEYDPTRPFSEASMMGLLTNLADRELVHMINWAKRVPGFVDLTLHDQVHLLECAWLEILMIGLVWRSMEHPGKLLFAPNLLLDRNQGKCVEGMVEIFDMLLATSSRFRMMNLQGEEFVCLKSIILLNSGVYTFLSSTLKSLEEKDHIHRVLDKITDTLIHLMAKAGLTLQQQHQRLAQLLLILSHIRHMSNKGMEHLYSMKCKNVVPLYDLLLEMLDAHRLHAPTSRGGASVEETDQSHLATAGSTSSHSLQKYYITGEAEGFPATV
The assay can be described thus: Estrogen response element (ERE) luciferase reporter. The format is cell-based, human (hERα) in HEK293T cells. As to conditions: bafilomycinA1 (5 μM) or EN6 (50 μM) with E2 or E2-3-ether; 24 h. A general note: A reporter such as luciferase makes a cellular process visible.

Assay [5] deals with GLP-1R / Rab5+ early endosomes. In words: GLP-1R colocalization with Rab5+ early endosomes, BRET. As to conditions: with GLP-1 (7-36)amide (1 μM).
The target of assay [6] is T2, hGLP-1R (Homo sapiens, UniProt P43220). In words: cAMP production, BRET, CLU177. The format is cell-based, human (hGLP-1R) in mouse CLU177 cells.
The target in assay [7] is T2, hGLP-1R. In words: GLP-1R-Rluc8 internalization away from GFP-CAAX, BRET. The format is cell-based, human (hGLP-1R) in HEK293T cells.
Assay [8] deals with T2, hGLP-1R. In words: Nluc-mGαs recruitment to GLP-1R-GFP, BRET. The format is cell-based, human (hGLP-1R) in HEK293T cells.
The target in assay [9] is T2, hGLP-1R. In words: β-arrestin-2-Rluc8 recruitment, BRET, MIN6. The format is cell-based, human (hGLP-1R) in mouse MIN6 cells.
The target of assay [10] is T2, hGLP-1R. In words: GLP-1R-Rluc8 internalization, BRET, CLU177. The format is cell-based, human (hGLP-1R) in mouse CLU177 cells.
In assay [11] the target is T2, hGLP-1R. The assay can be described thus: β-arrestin-2-Rluc8 recruitment, BRET, CLU177. The format is cell-based, human (hGLP-1R) in mouse CLU177 cells.
Assay [12] concerns the target T2, hGLP-1R. The assay can be described thus: Nluc-mGαs recruitment to GLP-1R, BRET, MIN6. The format is cell-based, human (hGLP-1R) in mouse MIN6 cells.
The target of assay [13] is T2, hGLP-1R. In words: cAMP production, CAMYEL BRET. The format is cell-based, human (hGLP-1R) in HEK293T cells.
Assay [14] addresses T2, hGLP-1R. In words: Nluc-mGαq recruitment to GLP-1R-GFP, BRET. The format is cell-based, human (hGLP-1R) in HEK293T cells.
For assay [15], the target named is T2, hGLP-1R. The assay can be described thus: cAMP production, BRET, MIN6. The format is cell-based, human (hGLP-1R) in mouse MIN6 cells.
For assay [16], the target named is T2, hGLP-1R. The assay can be described thus: β-arrestin-2-Rluc8 recruitment to GLP-1R-GFP, BRET. The format is cell-based, human (hGLP-1R) in HEK293T cells.
The target of assay [17] is T2, hGLP-1R. In words: GLP-1R-Rluc8 internalization, BRET, MIN6. The format is cell-based, human (hGLP-1R) in mouse MIN6 cells.
In assay [18] the target is T2, hGLP-1R. The assay can be described thus: Nluc-mGαs recruitment to GLP-1R, BRET, CLU177. The format is cell-based, human (hGLP-1R) in mouse CLU177 cells.
Assay [19] deals with T2, hGLP-1R. In words: Nluc-mGαq recruitment to GLP-1R, BRET, MIN6. The format is cell-based, human (hGLP-1R) in mouse MIN6 cells.

T2 sequence (P43220 24-463): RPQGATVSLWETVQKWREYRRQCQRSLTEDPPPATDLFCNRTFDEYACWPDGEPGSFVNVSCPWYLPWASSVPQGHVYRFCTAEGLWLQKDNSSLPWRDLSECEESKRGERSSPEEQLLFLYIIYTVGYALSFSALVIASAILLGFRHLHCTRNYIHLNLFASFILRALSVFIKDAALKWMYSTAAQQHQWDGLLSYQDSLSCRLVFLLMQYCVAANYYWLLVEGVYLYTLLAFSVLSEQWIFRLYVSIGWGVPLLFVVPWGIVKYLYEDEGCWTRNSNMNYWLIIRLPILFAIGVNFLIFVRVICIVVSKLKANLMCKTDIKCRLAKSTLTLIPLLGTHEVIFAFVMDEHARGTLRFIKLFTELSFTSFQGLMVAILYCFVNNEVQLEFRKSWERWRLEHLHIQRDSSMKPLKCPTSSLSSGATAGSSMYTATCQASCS

Turning to `C[C@]12CC[C@@H]3c4ccc(O)cc4CC[C@H]3[C@@H]1CC[C@@H]2O` [E2, 17β-estradiol], the “cAMP production via GPER1” value in [1] is listed as “did not observe E2-or G1-driven cAMP production”. Besides, in assay [2], the “PLA: proximal localization of ERα and SP-1” value was “significantly increase the proximal localization of ERα and the nucleus-localized transcription factor specificity protein-1 (SP-1) relative to GLP-1 (7-36)amide”.
For the compound `C[C@]12CC[C@@H]3c4ccc(OCC(=O)O)cc4CC[C@H]3[C@@H]1CC[C@@H]2O` [E2-3-ether, estradiol 3-carboxymethyl ether], in [3], the estrone-3-sulfate levels entry is listed as “significantly increased estrone-3-sulfate levels”.
With `C=CC(=O)Nc1cc(NC(=O)c2cnn(-c3ccccc3F)c2)ccc1F` [EN6], in assay [4], the “off-target effect on stimulated ERα activation” value was “did not have off-target effects on stimulated ERα activation by E2 or E2-3-ether”. In addition, the “endosomal trafficking dynamics on EN6 treatment” value in assay [5] (50 μM) was “without altering endosomal trafficking dynamics”.
Consider `CC(=O)c1ccc2c(c1)C1C=CCC1C(c1cc3c(cc1Br)OCO3)N2` (centres unmarked) [G1], for which the “cAMP production via GPER1” value in assay [1] is recorded as “did not observe E2-or G1-driven cAMP production”.
In general, EC50 refers to the concentration needed to bring the measured effect to its halfway point. Lower therefore signals an effect from little substance. The term Emax denotes the maximal effect, on the per cent scale that the assay sets. For the compound `CC[C@H](C)[C@H](NC(=O)[C@H](Cc1ccccc1)NC(=O)[C@H](CCC(=O)O)NC(=O)[C@H](CCCCN)NC(=O)[C@H](C)NC(=O)[C@H](C)NC(=O)[C@H](CCC(N)=O)NC(=O)[C@H](CCC(=O)O)NC(=O)[C@H](CCC(=O)O)NC(=O)[C@H](CC(C)C)NC(=O)[C@H](Cc1ccc(O)cc1)NC(=O)[C@H](CO)NC(=O)[C@H](CO)NC(=O)[C@@H](NC(=O)[C@H](CC(=O)O)NC(=O)[C@H](CO)NC(=O)[C@@H](NC(=O)[C@H](Cc1ccccc1)NC(=O)[C@@H](NC(=O)CNC(=O)[C@H](CCC(=O)O)NC(=O)C(C)(C)NC(=O)[C@@H](N)Cc1c[nH]cn1)[C@@H](C)O)[C@@H](C)O)C(C)C)C(=O)N[C@@H](C)C(=O)N[C@@H](Cc1c[nH]c2ccccc12)C(=O)N[C@@H](CC(C)C)C(=O)N[C@H](C(=O)N[C@@H](CCCCN)C(=O)NCC(=O)NCC(=O)N1CCC[C@H]1C(=O)N[C@@H](CO)C(=O)N[C@@H](CO)C(=O)NCC(=O)N[C@@H](C)C(=O)N1CCC[C@H]1C(=O)N1CCC[C@H]1C(=O)N1CCC[C@H]1C(=O)N[C@@H](CO)C(=O)N[C@@H](CCCCNC(=O)COc1ccc2c(c1)CC[C@@H]1[C@@H]2CC[C@]2(C)[C@@H](O)CC[C@@H]12)C(N)=O)C(C)C` [GLP-1-CEX/E2], the EC50 in [6] is 0.0316 nM; in assay [7], 5.01 nM; in assay [8], 44.6 nM; in assay [9], 39.2 nM; in assay [10], 142 nM; in assay [11] it was 162 nM. Besides, the EC50 in assay [12] came out at 143 nM; in [13] it was 16.8 nM; in [14] it was 47.8 nM; in assay [15] it was 0.963 nM; in assay [16], 29.5 nM; in assay [17], 158 nM. The EC50 in [18] came to 62.2 nM; in assay [19], 245 nM. The Emax turned out to be 106 ± 6.2% in assay [6]; 90.9 ± 1.5% in assay [7] (HEK-293T); 94.2 ± 5.2% in assay [8] (HEK-293T); 99 ± 4.9% in [9] (MIN6); 97.4 ± 14.8% in assay [10]; 95.9 ± 4.1% in assay [11]. Besides, the Emax was 95.4 ± 7.7% in assay [12] (MIN6); 111 ± 5.3% in assay [13] (HEK-293T); 94 ± 9% in assay [14] (HEK-293T); 99.1 ± 4% in assay [15] (MIN6); 100 ± 2.6% in [16] (HEK-293T); 98.6 ± 9.3% in assay [17] (MIN6). The Emax in assay [18] is 103 ± 5.7%; in [19] (MIN6), 76.7 ± 12.2%.
Take `CO/C1=C\C(C)=C\[C@@H](C)[C@@H](O)[C@@H](C)C/C(C)=C/C=C/[C@H](OC)[C@@H]([C@@H](C)[C@@H](O)[C@H](C)[C@@]2(O)C[C@@H](O)[C@H](C)[C@@H](C(C)C)O2)OC1=O` [bafilomycinA1]: the “GLP-1R internalization on bafilomycinA1 pre/co-treatment” value in assay [7] (5 μM, with GLP-1 (7-36)amide (1 μM)) is listed as “without affecting receptor internalization”. For the same compound, the “off-target effect on stimulated ERα activation” value in [4] is “did not have off-target effects on stimulated ERα activation by E2 or E2-3-ether”. Besides, the “GLP-1R retention in Rab5+ early endosomes on bafilomycinA1 pre/co-treatment” value in assay [5] (5 μM) is given as “significantly increases GLP-1R retention in Rab5^+ early endosomes”.
With `C=C[C@@]1(C)CC(=O)[C@]2(O)[C@@]3(C)[C@@H](O)CCC(C)(C)[C@@H]3[C@H](O)[C@H](OC(C)=O)[C@@]2(C)O1` [forskolin, reference compound], the “saturation of the cAMP sensor” value in assay [13] (forskolin 50 μM, hGLP-1R+ HEK293T) is recorded as “Saturation of the cAMP sensor was not achieved”.
